Data: patent US6172074A, “Imidazopyridines and oxazolopyridines” (Byk Gulden Lomberg Chemische Fabrik GmbH, priority 1996, dated 2001)
Structures can show the parent of a compound that is named as a salt.

What follows are compounds tested on PDE4 (assay: Inhibition of the PDE4 activity (Bauer and Schwabe method, adapted to microtiter plates)). Details: inhibitory concentration as -log IC50 (mol/l).
Assay type: biochemical

| Structure (SMILES) | -log IC50 |
| --- | --- |
| COc1ccc(-c2nc3ncccc3o2)c2c1OC1(CCCC1)C2 [Compound 1, 2-(2,3-Dihydro-7-methoxybenzofuran-2-spiro-1'-cyclopentan-4-yl)oxazolo[4,5-b]pyridine] | 7.93 |
| COc1ccc(-c2nc3cccnc3o2)c2c1OC1(CCCC1)C2 [Compound 2, 2-(2,3-Dihydro-7-methoxybenzofuran-2-spiro-1'-cyclopentan-4-yl)oxazolo[5,4-b]pyridine] | 6.61 |
| COc1ccc(-c2nc3cnccc3o2)c2c1OC1(CCCC1)C2 [Compound 3, 2-(2,3-Dihydro-7-methoxybenzofuran-2-spiro-1'-cyclopentan-4-yl)oxazolo[4,5-c]pyridine] | 8.76 |
| COc1ccc(-c2nc3cnccc3[nH]2)c2c1OC1(CCCC1)C2 [Compound 4, 2-(2,3-Dihydro-7-methoxybenzofuran-2-spiro-1'-cyclopentan-4-yl)imidazolo[4,5-c]pyridin] | 8.08 |
| COc1ccc(-c2nc3cnccc3[nH]2)c2c1OC1(CCCCC1)C2 [Compound 5, 2-(2,3-Dihydro-7-methoxybenzofuran-2-spiro-1'-cyclohexan-4-yl)imidazolo[4,5-c]pyridine] | 7.52 |
| COc1ccc(-c2nc3ncccc3[nH]2)c2c1OC1(CCCCC1)C2 [Compound 6, 2-(2,3-Dihydro-7-methoxybenzofuran-2-spiro-1'-cyclohexan-4-yl)imidazo[4,5-b]pyridine dihydrochloride hemihydrate] | 6.90 |
| COc1ccc(-c2nc3c(Cl)nccc3[nH]2)c2c1OC1(CCCC1)C2 [Compound 7, 4-Chloro-2-(2,3-dihydro-7-methoxybenzofuran-2-spiro-1'-cyclopentan-4-yl)imidazo[4,5-c]pyridine] | 7.98 |
